Key:
EBC-1 = assay: In vitro activity in EBC-1 cell line (CTG 120h), Example 6; format: cell-based; conditions: Homo sapiens, EBC-1, 120 h, EBC-1, CTG 120 h
Experimental: (§1) Cell lines were cultured in the media described above at 37° C. in a humidified atmosphere containing 5% CO2. Cells were seeded in 96 well clear bottom plates (96 well clear-bottom, white, Corning reference 3903) and exposed to the mAbs or ADCs for 120h (serially diluted; 9 concentrations each, triplicates). Effects of mAbs or ADCs on cell viability were assessed after 5 days of incubation at 37° C./5% CO2 by quantification of cellular ATP levels using CellTiter-Glo reagent (Promega Ref: G7571) at 75 μL reagent/well. All the conditions were tested in triplicates. Luminescence was quantified on a multipurpose plate reader. IC50s were calculated using standard four-parametric curve fitting. IC50 is defined as the compound concentration at which the CTG signal is reduced to 50% of that measured for the control. Two independent experiments were performed (N1 and N2). IC50 data of each experiment and the arithmetic mean is shown in Table 14 for all the antibodies and ADCs tested.

SNU-5 [1] = assay: In vitro activity in SNU-5 cell line (CTG 120h), Example 6; format: cell-based; conditions: Homo sapiens, SNU-5, 120 h, SNU-5, CTG 120 h
Experimental: as §1

LOUNH-91 = assay: In vitro activity in LOUNH-91 cell line (CTG 120h), Example 6; format: cell-based; conditions: LOU-NH91, 120 h, LOUNH91, CTG 120 h
Experimental: as §1

SNU-5 [2] = assay: In vitro activity in SNU-5 cell line (CTG 120h), Example 12; format: cell-based; conditions: Homo sapiens, SNU-5, 120 h, SNU5, CTG 120 h
Experimental: EBC-1 and SNU-5 cell lines were cultured in the media described above at 37° C. in a humidified atmosphere containing 5% CO2. […] Effects of mAbs or ADCs on cell viability were assessed after 5 days of incubation at 37° C./5% CO2 by quantification of cellular ATP levels using CellTiter-Glo reagent (Promega Ref: G7571) at 75 μL reagent/well. All the conditions were tested in triplicates. Luminescence was quantified on a multipurpose plate reader. IC50s were calculated using standard four-parametric curve fitting. […] Two independent experiments were performed (N1 and N2).

H1650 cells = assay: In vitro activity in H1650 cell line (3D, CTG 120h), Example 12; format: cell-based; conditions: Homo sapiens, NCI-H1650, 120 h, H1650 3D
Experimental: H1650 cells were cultivated in RPMI supplemented with 10% heat inactivated fetal bovine serum, penicillin (100 IU/ml), streptomycin (100 μg/ml) and L-glutamine (2 mM). Cells were cultured at 37° C. in a humidified atmosphere containing 5% CO2. Cells were seeded in 96 microwell round bottom plates (96 microwell low attachment plates, Costar reference 7007; 75 μL/well of 125000 cells/mL) and exposed to the mAbs or ADCs for 120h (serially diluted; 9 concentrations each, duplicates). Effects of mAbs or ADCs on cell viability were assessed after 5 days of incubation at 37° C./5% CO2 by quantification of cellular ATP levels using CellTiter-Glo reagent (Promega Ref: G7571) at 75 μL reagent/well. All the conditions were tested in duplicates. Luminescence was quantified on a multipurpose plate reader. IC50s were calculated using standard four-parametric curve fitting. IC50 is defined as the compound concentration at which the CTG signal is reduced to 50% of that measured for the control. Two independent experiments were performed (N1 and N2).
Plating Conditions: EBC-1: 75 μL/well of 60000 cells/mL for 120h in 96-well plate SNU-5: 75 μL/well of 60000 cells/mL for 120h in 96-well plate H1650 (ATOC): 75 μL/well of 125000 cells/mL for 120h in 96 microwell round bottom plates

lung cancer cell lines = assay: Lung cancer cell line panel of Example 7, statements in text (CTG 120h); format: cell-based; conditions: lung cancer cell lines of Table 15, single agents
Experimental: Cell lines were cultured in the media described above at 37° C. in a humidified atmosphere containing 5% CO2. Cells were seeded in 96 well clear bottom plates (96 well clear-bottom, white, Corning reference 3903) and exposed to the mAbs, mAbs mixture, ADCs or ADCs mixture as single agents or in 1:1 combination with Paclitaxel. When in 1:1 combination, both the combining partner (Paclitaxel) and the mAb, mAb mixture, ADC or ADC mixture were serially diluted (9 concentrations each, triplicates). Effect on cell viability was assessed after 5 days of incubation at 37° C./5% CO2 by quantification of cellular ATP levels using CellTiter-Glo reagent (Promega Ref: G7571) at 75 μL reagent/well. All the conditions were tested in triplicates. Luminescence was quantified on a multipurpose plate reader. IC50s were calculated using standard four-parametric curve fitting. IC50 is defined as the compound concentration at which the CTG signal is reduced to 50% of that measured for the control. Two independent experiments were performed (N1 and N2).

[3] = system: HCC78 lung cancer cell line; assay: HCC78 viability, single agents or 1:1 combination with paclitaxel (CTG 120h), Example 13; format: cell-based; conditions: Homo sapiens, HCC78, 120 h
Experimental: HCC78 lung cancer cell line was cultured in the media described above at 37° C. in a humidified atmosphere containing 5% CO2. […] When in 1:1 combination, both paclitaxel and the mAb or ADC were serially diluted (9 concentrations each, triplicates). Effect on cell viability was assessed after 5 days of incubation at 37° C./5% CO2 by quantification of cellular ATP levels using CellTiter-Glo reagent (Promega Ref: G7571) at 75 μL reagent/well. All the conditions were tested in triplicates. Luminescence was quantified on a multipurpose plate reader. IC50s were calculated using standard four-parametric curve fitting. […] Two independent experiments were performed (N1 and N2).

H1650 xenografts = assay: In vivo efficacy alone or with paclitaxel in Met non amplified NCI-H1650 lung adenocarcinoma human cell model, Example 15; set-up: species or system SCID mice; conditions: paclitaxel 12.5 mg/kg IV at day 1, 8 and 15, single agent
Experimental: Below are the procedures for determining the in vivo therapeutic effect of a Bcl-xL ADC targeting the Met protein as a single agent or in combination with paclitaxel. Their activities were compared to the corresponding naked anti-Met mAb or Ab G-L42C-P25 (non-targeting ADC) formulated in Phosphate-Buffered Saline (PBS) in a Met non amplified NCI-H1650 lung adenocarcinoma human cell line after intravenous (IV) administration.
NCI-H1650 cells, obtained from ATCC, were cultured in RPMI supplemented with 10% SBS, 1% Penicillin-Streptomycin and 1% HEPES. Cells were resuspended in 50% Matrigel® (Corning®) and 0.1 ml containing 10×10^6 cells were subcutaneously inoculated into the right flank of female SCID mice, provided by Charles River.
Mice body weight was monitored 3 times a week and tumor size measured using electronic calipers. Tumor volume was estimated by measuring the minimum and maximum tumor diameters using the formula: (minimum diameter)2(maximum diameter)/2.
With DTV (Delta Tumor Volume) at Dx, calculated being TV at Dx−TV at Randomization.
Mice were sacrificed at the first measurement for which tumor volume exceeded 2000 mm3 or at the first signs of animal health deterioration. […] SCID mice were maintained according to institutional guidelines.

[4] = system: pancreatic cancer cell lines; assay: Pancreatic cancer cell line panel of Example 10 (CTG 120h); format: cell-based; conditions: pancreatic cancer cell lines of Table 16, single agents
Experimental: Cell lines were cultured in the media described above at 37° C. in a humidified atmosphere containing 5% CO2. […] When in 1:1 combination, both the combining partner (Paclitaxel, Trametinib or Gemcitabine) and the mAb or ADC were serially diluted (9 concentrations each, triplicates). Effect on cell viability was assessed after 5 days of incubation at 37° C./5% CO2 by quantification of cellular ATP levels using CellTiter-Glo reagent (Promega Ref: G7571) at 75 μL reagent/well. All the conditions were tested in triplicates. Luminescence was quantified on a multipurpose plate reader. IC50s were calculated using standard four-parametric curve fitting. […] Two independent experiments were performed (N1 and N2).

Work on `Cc1c(Nc2nc3ccccc3s2)nnc2c1CCCN2c1ccc(-c2cnn(C[C@]34C[C@]5(C)C[C@](C)(C3)C[C@@](OCCNCCCO)(C5)C4)c2C)c(C(=O)O)n1` [P25, 6-[3-(1,3-benzothiazol-2-ylamino)-4-methyl-6,7-dihydro-5H-pyrido[2,3-c]pyridazin-8-yl]-3-[1-[[3-[2-(3-hydroxypropylamino)ethoxy]-5,7-dimethyl-1-adamantyl]methyl]-5-methyl-pyrazol-4-yl]pyridine-2-carboxylic acid] yielded an IC50 (EBC-1; mean) of 43.4 nM, an IC50 (EBC-1; n = 1) of 20.8 nM and an IC50 (EBC-1; n = 2) of 65.9 nM. It also gave an IC50 (SNU-5 [1]; mean) of 10700 nM, an IC50 (SNU-5 [1]; n = 1) of 10600 nM and an IC50 (SNU-5 [1]; n = 2) of 10800 nM. The IC50 (LOUNH-91; mean) was 7.07 nM, the IC50 (LOUNH-91; n = 1) was 6.43 nM and the IC50 (LOUNH-91; n = 2) was 7.71 nM. For the same molecule, the IC50 (SNU-5 [2]; Mean) was 5510 nM, the IC50 (SNU-5 [2]; N1) was 5510 nM and the IC50 (SNU-5 [2]; N2) was greater than 30000 nM. For the same molecule, the IC50 (H1650 cells; N1) was 8.28 nM, the IC50 (H1650 cells; N2) was 5.9 nM and the IC50 (H1650 cells; mean) was 7.09 nM.

With `CC(=O)O[C@H]1C(=O)[C@@]2(C)[C@H]([C@H](OC(=O)c3ccccc3)[C@]3(O)C[C@H](OC(=O)[C@H](O)[C@@H](NC(=O)c4ccccc4)c4ccccc4)C(C)=C1C3(C)C)[C@]1(OC(C)=O)CO[C@@H]1C[C@@H]2O` [Paclitaxel, paclitaxel] the “effect on the viability” value (lung cancer cell lines) was “induced dose dependent decrease in cell viability (with measurable IC50) in all cell lines except NCI-H1838”, the IC50 ([3]; Mean) was 6.44 nM and the IC50 ([3]; N1) was 6.04 nM. For the same molecule, the IC50 ([3]; N2) was 6.84 nM, the “TGI % (d 18)” value (H1650 xenografts) was −14.4% and the “effect on the viability” value [4] was “induced dose dependent decrease in cell viability with measurable IC50 for most of the cell lines”.

— patent US20250339547A1, “MET BCL-XL INHIBITOR ANTIBODY-DRUG CONJUGATES AND METHODS OF USE THEREOF” (Novartis AG, priority 2022, published 2025)
